Measured values published in publication PMC8603350, “A Remote Secondary Binding Pocket Promotes Heteromultivalent Targeting of DC-SIGN” (Journal of the American Chemical Society, 2021).
Numbering of substitutions follows the chain as printed. “Also recorded” adds a separate entry of the source.

What was measured:
DC-SIGN ECD [1] = target: T1, DC-SIGN ECD (Homo sapiens, UniProt Q9NNX6); assay: 19F NMR reporter displacement assay transferred to DC-SIGN ECD; assay type: binding; conditions: 0.1 mM reporter 49; for 48 estimated, receptor precipitation above 1 mM
T1 construct: DC-SIGN extracellular domain (ECD); made in house; host or cells: E. coli BL21(DE3), pET30b; gene from GenScript
T1 sequence (Q9NNX6 59-404 limits assumed): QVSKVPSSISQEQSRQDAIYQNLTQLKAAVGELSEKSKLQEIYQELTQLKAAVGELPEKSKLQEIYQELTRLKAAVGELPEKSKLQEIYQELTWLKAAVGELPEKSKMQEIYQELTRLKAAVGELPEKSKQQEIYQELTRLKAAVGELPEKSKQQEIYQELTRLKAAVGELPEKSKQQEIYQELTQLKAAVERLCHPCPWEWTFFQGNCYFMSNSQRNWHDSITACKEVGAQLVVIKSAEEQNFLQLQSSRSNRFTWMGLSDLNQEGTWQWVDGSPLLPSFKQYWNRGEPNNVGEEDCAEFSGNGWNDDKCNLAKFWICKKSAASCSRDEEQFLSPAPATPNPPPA

DC-SIGN CRD = target: T2, DC-SIGN CRD (Homo sapiens, UniProt Q9NNX6); assay: 15N HSQC NMR titration; assay type: binding; conditions: 10 mM CaCl2, MES pH 6.0
T2 construct: His-tagged DC-SIGN CRD wild-type as well as the M270F mutant; His-tag; made in house; host or cells: E. coli BL21(DE3), pET28a; gene from GenScript
T2 sequence (Q9NNX6 263-378 limits assumed): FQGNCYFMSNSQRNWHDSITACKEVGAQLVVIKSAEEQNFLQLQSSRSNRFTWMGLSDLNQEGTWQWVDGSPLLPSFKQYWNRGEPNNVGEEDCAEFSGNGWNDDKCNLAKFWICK

DC-SIGN CRD M270F = target: T3, DC-SIGN CRD M270F (Homo sapiens, UniProt Q9NNX6, M270F); assay: 15N HSQC NMR binding experiments with M270F mutant; conditions: absence of Ca2+
T3 construct: His-tagged DC-SIGN CRD wild-type as well as the M270F mutant; His-tag; made in house; host or cells: E. coli BL21(DE3), pET28a; gene from GenScript
T3 sequence (Q9NNX6 263-378 M270F limits assumed): T2 sequence (Q9NNX6 263-378 limits assumed) with M8F

DC-SIGN ECD [2] = target: T1, DC-SIGN ECD; assay: KD determination from 19F NMR CSPs; assay type: binding; conditions: direct observation of CF3 chemical shift; read-out: KD (19F CSP)
DC-SIGN ECD [3] = target: T1, DC-SIGN ECD; assay: Direct 19F R2-filtered NMR binding experiments (CF3 resonance)
Method: KI values were determined as previously described for Langerin and the DC-SIGN CRD.6 Briefly, competitive binding experiments were conducted with 49 at a concentration of 0.1 mM and varying competitor concentrations [I]T. KI and [P]T values were derived from Equation 8 in a two-parameter fit.
R2,obs = R2,f + (R2,b − R2,f)pb […]
θ = cos−1 ( ) ,a = KD + KI + [L]T + [I]T − [P]T
b = ([I]T − [P]T)KD + ([L]T − [P]T)KD + KIKD, c = −KIKD[P]T
KD determination from 19F NMR CSPs
For KD determination from 19F NMR CSPs, samples and measurements were set up as described for 19F R2-filtered NMR but at a single relaxation time T = 0 s. CSP 19F, T were calculated from the chemical shift of the 19F resonance of 48 in the presence of protein δT at increasing ligand concentrations and the chemical shift in absence of protein δf at a concentration of 1 mM via Equation 4.
The KD value was calculated from CSP19F, T values in a two -parameter fit using Equation 10, using a fixed protein concentration [P] T and a CSP19F of 0 ppm as a lower bound. CSP19F,b corresponds to the top asymptote and was kept variable. As in Equation 9, pb represents the fraction of bound protein.

DC-SIGN+ Raji cells = assay: Liposome binding assay, flow cytometry; assay type: cell-based
Method: If not stated otherwise, all media and supplements for cell culture experiments were purchased from Thermo Fisher Scientific. Raji, THP-1 and U937 cell lines (ATCC) were grown in complete growth medium containing RPMI1640 medium, 10% FCS, 100 U mL-1 Penicillin-Streptomycin and GlutaMax at 37°C and 5% CO2. Cells were monitored with a light microscope (IT40 5PH, VWR) and subcultured every 2 -3 days to maintain cell densities ranging from of 0.5 - 3 x 10^6 cells per mL.
CLR-expressing cell lines were generated as described before.4,27 Briefly, DC-SIGN, Langerin, murine Langerin and murine Dectin-1 cDNAs (Sinobiologicals) were cloned into a lentiviral BIC-PGK-Zeo-T2a-mAmetrine:EF1A construct by Gibson assembly (NEB) according to the manufacturer’s protocol. HEK293 cells were transfected with the lentiviral vector together with third-generation packaging vectors and viral particles were then used for transduction of Raji cells. In analogy, DC-SIGN and Langerin-expressing THP-1 and U937 cell lines were generated by lentiviral transduction.
Liposome binding assay – flow cytometry
Liposome binding to CLR-expressing cells was assayed as previously described.27 Briefly, 0.05 x 10^6 cells were plated in transparent conical-bottom 96 well microtiter plates (Nunc) in a volume of 100 µL medium. Plates were centrifuged at 500 x g for 3 minutes, supernatant was aspirated, and cells were resuspended in 100 µL medium, containing 16 µM liposomes. In control experiments, cells were incubated with medium containing 10 mM EDTA or 50 µg mL-1 mannan for 15 min at 4 °C, prior to liposome application. After 1 h incubation at 4 °C in the dark, cells were centrifuged at 500 x g for 3 min and the supernatant was discarded. Cells wer e resuspended in 200 µL ice-cold medium and analyzed by detecting the co-formulated Alexa 647 dye via flow cytometry with a 654 nm laser and a 670/14 nm filter (Attune Nxt, life technologies).
Flow cytometry data was processed using FlowJo (BD Bioscience). Mean fluorescence intensity (MFI) was further analyzed and plotted using GraphPad Prism (GraphPad […]
To monitor allosteric activation of DC-SIGN by glycomimetic 48, the described protocol was adjusted as follows. DC-SIGN+ Raji cells were plated in transparent conical-bottom 96 well microtiter plates (Nunc) in a volume of 100 µL medium. Plates were centrifuged at 500 x g for 3 minutes, supernatant was aspirated, and cell were resuspended in 25 µL medium supplemented with varying concentrations of monovalent carbohydrates or 0.5 mM 48. Homomultivalent liposomes carrying either natural carbohydrates or 48 were added at a final concentration of 16 µM. Liposome binding was subsequently quantified by measuring Alexa 647 fluorescence in flow cytometry experiments. Statistical significance by means of a student’s t-test was assessed based on averaged normalized MFIs from four biological replicates each conducted as technical duplicates. A p-value < 0.05 was set as significance cut-off.

Ki (DC-SIGN ECD [1]): 1.15 ± 0.01 mM | Kd (DC-SIGN CRD): 460 ± 160 µM | binding to M270F mutant (DC-SIGN CRD M270F): abrogation of 48-binding | Kd (DC-SIGN ECD [2]): 370 ± 60 µM | Kd (DC-SIGN ECD [3]; direct observation of CF3 relaxation rate R2,obs): 480 ± 100 µM | apparent KD values lower than the determined KI (DC-SIGN ECD [3]; direct-binding NMR KD vs RDA KI): about 3 fold
Structure (SMILES): NC[C@H]1O[C@H](Oc2ccc(-c3ccc(C(=O)O)cc3)cc2C(F)(F)F)[C@@H](O)[C@@H](O)[C@@H]1O [compound 48]
effect of soluble compound on binding of Fuc-Lip liposomes (DC-SIGN+ Raji cells; 0.5 mM soluble 48, liposomes with 2.5 mol % Fuc-Lip, p < 0.05, n = 4): significantly enhances; also recorded: significantly increased | binding of homomultivalent liposomes (DC-SIGN+ Raji cells; 42-Lip up to 1.26%, 48 up to 1.66% total lipid concentration): does not show any binding | molar glycomimetic/Man ratio around which the cooperative binding effect saturates (DC-SIGN+ Raji cells; heteromultivalent liposomes with Man-Lip): ~0.5
